# Results from publication PMC4890124, “Antimicrobial activity, improved cell selectivity and mode of action of short PMAP-36-derived peptides against bacteria and Candida” (Scientific Reports, 2016).
# Where two headings read alike, the source gives them in different places. Marks after values point to notes of the source that are not given here. Peptide text beside a SMILES is read from it.
# Tests used:
# [1] = test system: C. albicans CA276 (clinical isolate); experiment: microbe, parasite or virus in culture; type: cell-based, Candida albicans
# Description: (§1) The antifungal activities were monitored in RPMI-1640 broth medium by a 2-fold microdilution assay according to the Clinical and Laboratory Standards Institute (CLSI) methods. The Candida albicans CGMCC 2.2086, Candida tropicalis CGMCC 2.1975, and Candida krusei CGMCC 2.1857 fungal strains were purchased from the China General Microbiological Culture Collection Center (CGMCC, Beijing, China). Clinically isolated Candida albicans CA2761 was provided by the 4th Affiliated Hospital of Harbin Medical University. Briefly, fungal strains were cultured on YPD agar plates (1% peptone, 0.5% yeast extract, 1% glucose and 2% agar) at 28 °C to prepare Candida suspensions with a turbidity of a 0.5 McFarland standard. A total of 50 μl inoculum cell suspension diluted in RPMI-1640 broth medium was added to an equal volume of peptide solution to achieve a final peptide concentrations ranging from 0.25 μM to 128 μM in a 96-well plate. Pure broth alone or with inoculum suspensions was used as the negative control or the positive control, respectively. The plate was incubated at 28 °C for 48 h. MIC was considered the lowest concentration at which no fungal growth was visually observed under experimental conditions. […] After 48 h incubation at 28 °C, MFC was defined as the lowest concentration of peptides that killed at least 99.9% of the initial inoculums. Experiments were performed in triplicate with three biological replicates.
# [2] = test system: Candida krusei CGMCC 2.1857; experiment: microbe, parasite or virus in culture; type: cell-based
# Description: as §1
# [3] = test system: Candida albicans CGMCC 2.2086; experiment: microbe, parasite or virus in culture; type: cell-based
# Description: as §1
# [4] = test system: Candida tropicalis CGMCC 2.1975; experiment: microbe, parasite or virus in culture; type: cell-based
# Description: as §1
# [5] = test system: Bacillus subtilis CMCC 63501; type: cell-based; settings: CMCC 63501, 18 h
# Procedure: (§2) The peptide antibacterial activity was determined against both gram-positive and gram-negative bacteria strains, including Escherichia coli ATCC 25922, Escherichia coli UB1005, Salmonella enterica serovar typhimurium C77-31, Staphylococcus aureus ATCC 29213, Staphylococcus aureus ATCC 25923, Bacillus subtilis CMCC 63501, and Staphylococcus epidermidis ATCC 12228. Clinically isolated Escherichia coli EC183 was provided by the 4th Affiliated Hospital of Harbin Medical University. MIC of the peptides was measured using a modified version of the National Committee for Clinical Laboratory Standards (NCCLS) broth microdilution method as described previously. The bacterial strains were inoculated and grown to mid-log phase in fresh Mueller-Hinton broth (MHB) at 37 °C. Bacterial inoculum suspensions were prepared at a final concentration of approximately 1 × 10^5 CFU/ml. Peptides were 2-fold serially diluted to make different concentrations, from 0.5 to 256 μM. Equal volumes of inoculum suspensions were then added to each well of a sterile 96-well plate with different concentrations of peptides, and the plate was incubated for 18 h at 37 °C. Broth with or without bacteria was employed as the positive control or the negative control, respectively. MIC was defined as the lowest concentration of peptides that prevented visible turbidity by visual inspection. […] After overnight incubation at 37 °C, MBC was defined as the lowest concentration of peptides that killed at least 99.9% of the initial inoculums. Experiments were performed in triplicate with three biological replicates.
# Escherichia coli UB1005 = type: cell-based; settings: UB1005, 18 h
# Procedure: as §2
# [6] = test system: Staphylococcus aureus ATCC 29213; type: cell-based; settings: ATCC 29213, 18 h
# Procedure: as §2
# [7] = test system: Staphylococcus epidermidis ATCC 12228; type: cell-based; settings: ATCC 12228, 18 h
# Procedure: as §2
# [8] = test system: Escherichia coli ATCC 25922; type: cell-based; settings: ATCC 25922, 18 h
# Procedure: as §2
# [9] = test system: Staphylococcus aureus ATCC 25923; type: cell-based; settings: ATCC 25923, 18 h
# Procedure: as §2
# [10] = test system: Salmonella enterica serovar typhimurium C77-31; type: cell-based; settings: three independent experiments; for MBC S. typhi C77-31: lowest concentration killing at least 99.9% of initial inoculum
# Procedure: as §2
# [11] = test system: Clinically isolated Escherichia coli EC183; type: cell-based; settings: Clinically isolated EC183, 18 h
# Procedure: as §2
# [12] = Candida albicans, CLSI 2-fold microdilution, RPMI-1640, 28 °C for 48 h, visual, three independent experiments
# [13] = Candida albicans, lowest concentration killing at least 99.9% of initial inoculum, YPD agar, 48 h at 28 °C, three independent experiments
# [14] = Pichia kudriavzevii, CGMCC2, CLSI 2-fold microdilution, RPMI-1640, 28 °C for 48 h, visual, three independent experiments
# [15] = Pichia kudriavzevii, CGMCC2, lowest concentration killing at least 99.9% of initial inoculum, YPD agar, 48 h at 28 °C, three independent experiments
# [16] = Candida albicans, CGMCC2, CLSI 2-fold microdilution, RPMI-1640, 28 °C for 48 h, visual, three independent experiments
# [17] = Candida albicans, CGMCC2, lowest concentration killing at least 99.9% of initial inoculum, YPD agar, 48 h at 28 °C, three independent experiments
# [18] = Candida tropicalis, CGMCC2, CLSI 2-fold microdilution, RPMI-1640, 28 °C for 48 h, visual, three independent experiments
# [19] = Candida tropicalis, CGMCC2, lowest concentration killing at least 99.9% of initial inoculum, YPD agar, 48 h at 28 °C, three independent experiments
# [20] = CGMCC 2.1975, 48 h, read-out: MFC C. tropicalis 2.1975
# [21] = CGMCC 2.1975, 48 h, read-out: MIC C. tropicalis 2.1975
"MIC [1, 12] [µM]","MIC [2, 14] [µM]","MIC [3, 16] [µM]","MIC [4, 18] [µM]",Compound,"MFC [1, 13] [µM]","MFC [2, 15] [µM]","MFC [3, 17] [µM]","MFC [4, 19] [µM]","MFC C. albicans CA276 ([1]; CA276 (clinical isolate, 48 h)) [µM]","MIC C. albicans CA276 ([1]; CA276 (clinical isolate, 48 h)) [µM]",MBC B. subtilis 63501 [5],MIC B. subtilis 63501 [5],MBC E. coli 1005 (Escherichia coli UB1005),MBC S. aureus 29213 [6] [µM],MBC S. epidermidis 12228 [7],MBC E. coli 25922 [8] [µM],MBC S. aureus 25923 [9],MBC S. typhi C77-31 [10] [µM],MBC E. coli EC183 [11] [µM],MIC E. coli EC183 [11] [µM],other results
0.5,1,0.25,0.25,"C[C@@H]1[C@H](O)[C@@H](C)/C=C/C=C/C=C/C=C/C=C/C=C/C=C/[C@H](O[C@@H]2O[C@H](C)[C@@H](O)[C@H](N)[C@@H]2O)C[C@@H]2O[C@](O)(C[C@@H](O)C[C@@H](O)[C@H](O)CC[C@@H](O)C[C@@H](O)CC(=O)O[C@H]1C)C[C@H](O)[C@H]2C(=O)O [Amphotericin B, reference compound]",1,1,0.25,1,–,–,–,–,–,–,–,–,–,–,–,–,–
2,64,2,0.25,"OC(Cn1cncn1)(Cn1cncn1)c1ccc(F)cc1F [Fluconazole, reference compound]",2,64,2,1,–,–,–,–,–,–,–,–,–,–,–,–,–
–,–,–,–,CC[C@H](C)[C@H](NC(=O)[C@H](CCCCN)NC(=O)[C@H](CCCCN)NC(=O)[C@H](CC(C)C)NC(=O)[C@H](CCCNC(=N)N)NC(=O)[C@H](CCCCN)NC(=O)[C@H](CCCNC(=N)N)NC(=O)[C@@H](NC(=O)[C@H](CCCCN)NC(=O)[C@H](CCCCN)NC(=O)[C@H](CCCNC(=N)N)NC(=O)[C@H](CC(C)C)NC(=O)[C@H](CCCNC(=N)N)NC(=O)[C@H](CCCNC(=N)N)NC(=O)[C@H](Cc1ccccc1)NC(=O)[C@H](CCCNC(=N)N)NC(=O)CN)[C@@H](C)O)C(=O)NCC(=O)N[C@@H](CCCCN)C(=O)N[C@H](C(=O)N[C@@H](CC(C)C)C(=O)N[C@@H](CCCCN)C(=O)N[C@@H](Cc1c[nH]c2ccccc12)C(=O)N[C@H](C(=O)N1CCC[C@H]1C(=O)N1CCC[C@H]1C(=O)N[C@H](C(=O)N[C@H](C(=O)NCC(=O)N[C@@H](CO)C(=O)N[C@H](C(=O)N1CCC[C@H]1C(=O)N[C@@H](CC(C)C)C(=O)NCC(=O)N[C@@H](CS)C(=O)NCC(N)=O)[C@@H](C)CC)C(C)C)[C@@H](C)CC)[C@@H](C)CC)C(C)C [PMAP-36] (H-GRFRRLRKKTRKRLKKIGKVLKWIPPIVGSIPLGCG-NH2),–,–,–,–,128,128,1 (1) μM,1 (1) μM,2 ^c (2) μM,4,4 µM,4,4 µM,2,1,1,"MFC C. krusei 2.1857 ([2]; CGMCC 2.1857, 48 h): 8 µM; MIC C. krusei 2.1857 ([2]; CGMCC 2.1857, 48 h): 8 µM; MFC C. albicans 2.2086 ([3]; CGMCC 2.2086, 48 h): 128 µM; MIC C. albicans 2.2086 ([3]; CGMCC 2.2086, 48 h): 128 µM; MFC [4, 20]: 2 µM; MIC [4, 21]: 1 µM"
–,–,–,–,CC[C@H](C)[C@H](NC(=O)[C@H](Cc1c[nH]c2ccccc12)NC(=O)[C@H](CCCCN)NC(=O)[C@H](CC(C)C)NC(=O)[C@@H](NC(=O)[C@H](CCCCN)NC(=O)CNC(=O)[C@@H](NC(=O)[C@H](CCCCN)NC(=O)[C@H](CCCCN)NC(=O)[C@H](CC(C)C)NC(=O)[C@@H](N)CCCNC(=N)N)[C@@H](C)CC)C(C)C)C(N)=O [RI12] (H-RLKKIGKVLKWI-NH2),–,–,–,–,128,128,8 µM,2 µM,32 µM,128,64^c (64) μM,32,128^c (128) μM,32,4,2,"MFC C. krusei 2.1857 ([2]; CGMCC 2.1857, 48 h): 16 µM; MIC C. krusei 2.1857 ([2]; CGMCC 2.1857, 48 h): 16 µM; MFC C. albicans 2.2086 ([3]; CGMCC 2.2086, 48 h): 128 µM; MIC C. albicans 2.2086 ([3]; CGMCC 2.2086, 48 h): 128 µM; MFC C. tropicalis 2.1975 ([4]; CGMCC 2.1975, 48 h): 8 µM; MIC C. tropicalis 2.1975 ([4]; CGMCC 2.1975, 48 h): 8 µM"
–,–,–,–,CC[C@H](C)[C@H](NC(=O)[C@H](Cc1c[nH]c2ccccc12)NC(=O)[C@H](CCCCN)NC(=O)[C@H](CC(C)C)NC(=O)[C@@H](NC(=O)[C@H](CCCCN)NC(=O)CNC(=O)[C@@H](NC(=O)[C@H](CCCCN)NC(=O)[C@H](CCCCN)NC(=O)[C@H](CC(C)C)NC(=O)[C@H](CCCNC(=N)N)NC(=O)[C@H](CCCCN)NC(=O)[C@H](CCCNC(=N)N)NC(=O)[C@@H](NC(=O)[C@H](CCCCN)NC(=O)[C@H](CCCCN)NC(=O)[C@@H](N)CCCNC(=N)N)[C@@H](C)O)[C@@H](C)CC)C(C)C)C(N)=O [RI18] (H-RKKTRKRLKKIGKVLKWI-NH2),–,–,–,–,–,–,2 µM,1 µM,4 µM,4,16 µM,4,8 µM,4,2,1,"MFC ([1]; CA276 (clinical isolate, 48 h)): 16 µM; MIC ([1]; CA276 (clinical isolate, 48 h)): 8 µM; MIC E. coli 1005 (Escherichia coli UB1005): 2 µM; MIC S. aureus 29213 [6]: 4 µM; MIC S. epidermidis 12228 [7]: 4 µM; MIC E. coli 25922 [8]: 2 µM; MIC S. aureus 25923 [9]: 8 µM; MIC S. typhi C77-31 ([10]; broth microdilution, MHB, ~1 × 10^5 CFU/ml, 18 h at 37 °C, visual): 2 µM; MFC ([2]; CGMCC 2.1857, 48 h, read-out: MFC C. krusei 2.1857): 8 µM; MIC ([2]; CGMCC 2.1857, 48 h, read-out: MIC C. krusei 2.1857): 4 µM; MFC ([3]; CGMCC 2.2086, 48 h, read-out: MFC C. albicans 2.2086): 32 µM; MIC ([3]; CGMCC 2.2086, 48 h, read-out: MIC C. albicans 2.2086): 16 µM; MFC [4, 20]: 4 µM; MIC [4, 21]: 2 µM"
